According to patent US10149473B2, “Aminoindanes amides having a high fungicidal activity and their phytosanitary compositions” (STITCHING I-F PRODUCT COLLABORATION, priority 2010, dated 2018):

Assays:
Erysiphe graminis = experiment: Fungicidal activity in preventive application (5 days) against Erysiphe graminis on wheat; format: in vivo, Erysiphe graminis on wheat (Salgemma variety); details: 125 ppm, leaf spray, infection 5 days after treatment, evaluation after 12 days, percentage scale 100 = healthy plant, 0 = completely infected plant; for Activity NT (parts which had developed during the test): non-treated parts (NT)
Procedure: Determination of the Fungicidal Activity in Preventive Application (5 Days) Against Erysiphe graminis on Wheat.
(§1) Leaves of wheat plants of the Salgemma variety, grown in pots in a conditioned environment kept at 20° C. and 70% of relative humidity (R.H.), were treated by spraying on both sides of the leaves with the compounds under examination, dispersed in hydroacetonic solutions at 20% by volume of acetone.
After remaining 5 days in a conditioned environment, the plants were infected under dry conditions by shaking over them, in order to distribute the inoculum, plants previously infected by Erysiphe graminis.
The plants were then maintained in the same cell, in a humidity-saturated environment and at a temperature ranging from 18 to 24° C. for 12 days.
At the end of this period, the external symptoms of the pathogen appeared and it was therefore possible to proceed with the evaluation of the intensity of the infection, on both the parts treated directly with the products (T), and also on the parts which had developed during the test (NT), by means of a visible percentage evaluation scale of the area of affected leafs; the scale comprises, as extremes, the value 100 (healthy plant) and the value 0 (completely infected plant).

wheat plants = experiment: Phytotoxicity (percentage of leaf necrosis) induced on wheat plants; format: in vivo, wheat (Salgemma variety); details: 125 ppm on wheat, scale 0 = completely healthy plant to 100 = completely necrotized plant
Procedure: as §1
At the same time, the phytotoxicity was evaluated (percentage of leaf necrosis) induced on the wheat plants by the application of the products: in this case, the evaluation scale varies from 0 (completely healthy plant) to 100 (completely necrotized plant).

| Structure (SMILES) | Activity NT (parts which had developed during the test) (Erysiphe graminis) | Activity T (parts treated directly with the products) (Erysiphe graminis) | Phytotoxicity (wheat plants) |
| --- | --- | --- | --- |
| Cc1nn(C)c(C)c1C(=O)Nc1c(F)ccc2c1CCC2(C)C [CR-3, 1,3,5-trimethyl-N-(1,1-dimethyl-5-fluoro-4-indanyl)-4-pyrazolecarboxamide] | 0 | 10 | 0 |
| CC1CC(C)(C)c2cccc(NC(=O)c3cn(C)nc3C(F)F)c21 (stereo not drawn) [CR-1, 3-difluoromethyl-1-methyl-N-(1,1,3-trimethyl-4-indanyl)-4-pyrazolecarboxamide] | 65 | 70 | 10 |
| Cc1c(C(=O)Nc2ccc(F)c3c2CCC3(C)C)c(C(F)(F)F)nn1C [CR-2, 1,5-dimethyl-3-trifluoro-methyl-N-(1,1-dimethyl-7-fluoro-4-indanyl)-4-pyrazolecarboxamide] | 15 | 25 | 0 |
| CC1CC(C)(C)c2c(F)ccc(NC(=O)c3cn(C)nc3C(F)F)c21 (stereo not drawn) [Compound N. 1, 3-difluoromethyl-N-(7-fluoro-1,1,3-trimethyl-4-indanyl)-1-methyl-4-pyrazolecarboxamide] | 90 | 95 | 0 |
